The assay has as its system PLOD-2. Nature of the assay: PLOD-2 expression by qRT-PCR versus other anti-aging actives (Example 5). The assay is classed as cell-based, Human. The following applies: for Significant Increases in PLOD-2 Expression: 48 hours, fibroblasts, relative to vehicle; for induction of a significant level of PLOD-2 in skin cells: concentrations as in Table 5. Here is the method: Normal Human Dermal Fibroblasts were Grown in DMEM (Mediatech; cat. #: 15-013-CV) containing 10% Fetal Bovine Serum (Perbio; cat. #: SH30070.03), Penicillin/Streptomycin (Mediatech, Cat #30-001-C1), L-Glutamine (Mediatech; cat. #: 25-005-CI) at 37° C. and 10% CO2. […] RNA was isolated using RNeasy RNA extraction kit (74106) from Qiagen. RNA concentrations were determined using NanoDrop Spectrophotometer ND 1000 ([…]).
RT reactions were conducted in a total volume of 20 μl using the High Capacity cDNA kit from AB (PN 4368814). The RT mixture was prepared to contain 2 μl 10× TaqMan RT buffer, 1.2 μl dNTP mix ([…]), 1.0 μl 10× Random Hexamer, 1 μl RNase Inhibitor, 1 μl MultiScribe Reverse Transcriptase ([…]), 100 ng of RNA, and RNase-free water to make up the final volume of 20 μl. The reaction was incubated at 25° C. for 10 min, 45° C. for 45 min, and then 95° C. for 5 min in a BIORAD MY CYCLER.
QPCR was carried out using Applied Biosystems Universal PCR Master Mix (PN 4369016). The mixture contained 10 μl of Taqman Universal PCR mix, 1 μl of primer and probe mix, 2 μl of RT product, and 7 μl of deionized water. All probes, Taqman assays were, were purchased from Applied Biosystems, Hs01118190 ml for PLOD-2, and human GAPDH (PN 4352934). The temperature profiles for qPCR were 50° C. for 2 min, and 95° C. for 10 min for 1 cycle, then at 95° C. for 15 sec, and 60° C. for 1 min for 40 cycles carried out in Stratagene Mx 3005P qPCR machine.
RNA isolated from cells were analyzed by qRT-PCR for expression levels of PLOD-2, using GAPDH as an internal control.
Background: Quantitative PCR measures a nucleic acid by following its amplification.

Take `O=C(O)CO` [Glycolic Acid (AHA), Glycolic Acid]: the “induction of a significant level of PLOD-2 in skin cells” value is given as “did not induce a significant level of PLOD-2”. The “Significant Increases in PLOD-2 Expression” value (shortened to “Significant Increases”) (0.05%) is on record as “No”. Further, under “0.10%”, the “Significant Increases” value was “No”.
For `N#Cc1cccc(CN2CCNC(=O)CC2c2nccs2)c1` (centres unmarked) [ALB-H16063163], the “induction of a significant level of PLOD-2 in skin cells” value was “significantly stimulate”.
As for N-Acetyl-Tyrosinamide, the “induction of a significant level of PLOD-2 in skin cells” value was “significantly stimulate”.
Regarding Hyaluronic Acid, the “induction of a significant level of PLOD-2 in skin cells” value was “did not induce a significant level of PLOD-2”. Where the note is “0.001%”, the “Significant Increases” value is recorded as “No”. The “Significant Increases” value (0.005%) is reported as “No”.
Regarding `COc1ccc(Cc2nc(=O)c(CCC(=O)N3CCC(C)CC3)n[nH]2)cc1OC` [ALB-H09784893], the “induction of a significant level of PLOD-2 in skin cells” value is recorded as “significantly stimulate”.
Consider `CC1=C(/C=C/C(C)=C/C=C/C(C)=C/CO)C(C)(C)CCC1` [Retinol], for which the “induction of a significant level of PLOD-2 in skin cells” value was “did not induce a significant level of PLOD-2”. The “Significant Increases” value (5 μM) was “No”. Also, the “Significant Increases” value (10 μM) is listed as “No”.
Turning to `Oc1ccc(C=Cc2cc(O)cc(O)c2)cc1` [Resveratrol], the “induction of a significant level of PLOD-2 in skin cells” value is reported as “did not induce a significant level of PLOD-2”. Also, under “5 μM”, the “Significant Increases” value is on record as “No”. Moreover, the “Significant Increases” value (10 μM) was “No”.
Consider `NC(=O)c1cccnc1` [Niacinamide], for which the “induction of a significant level of PLOD-2 in skin cells” value is on record as “did not induce a significant level of PLOD-2”. Further, the “Significant Increases” value (0.05%) is given as “No”. Besides, the “Significant Increases” value (0.10%) is on record as “No”.
On to `COC1=C(OC)C(=O)C(C/C=C(\C)CC/C=C(\C)CC/C=C(\C)CC/C=C(\C)CC/C=C(\C)CC/C=C(\C)CC/C=C(\C)CC/C=C(\C)CC/C=C(\C)CCC=C(C)C)=C(C)C1=O` [Coenzyme Q10], for which the “Significant Increases” value (5 μM) was “Yes (11%)” and the “Significant Increases” value (10 μM) is listed as “Yes (24%)”.

For the origin of these results see patent US20140179688A1, “PLOD-2 Modulators and Their Use in the Treatment of Skin” (AVON PRODUCTS, INC., priority 2012, published 2014).
